Data: US6992079B2, “Substituted 11-phenyl-dibenzazepine compounds useful for the treatment or prevention of diseases characterized by abnormal cell proliferation” (President Fellows of Harvard College, priority 1997, dated 2006)
pIC50: −log10 of the molar value. Marks after values point to notes of the source that are not given here.

Assays:
[1] = test system: MDA-MB-23; assay: SRB antiproliferative assay; assay type: cell-based; details: Homo sapiens; MDA-MB-23 (Breast); SRB; 5% FCS/5 day incubation; read-out: IC50
Excerpt: (§1) The cells were passaged using Trypsin (Gibco).

[2] = test system: MMRU; assay: SRB antiproliferative assay; assay type: cell-based; details: Homo sapiens, MMRU (Melanoma), 5% FCS/5 day incubation
Excerpt: as §1

[3] = Preliminary toxicology, subcutaneous injection for 14 days; assay type: in vivo, CD-1 female mice; details: CD-1 female mice; 80 mg/kg/day s.c. 14 days
Protocol: The toxicological effects of CLT, and compounds 28, 30 and 31 were tested in CD-1 female mice. A dose of 80 mg/kg/day was given to each mouse via subcutaneous injection for a period of 14 days. Preliminary toxicological data was determined by measuring body weight, gross pathology of organs blood chemistry and histology. The vehicle used was DMF 12%+2% Tween 20 88%.

[4] = test system: HCT-15; assay: In-Vitro Testing SRB panel: Colon Cancer; assay type: cell-based; details: HCT-15
[5] = test system: SNB-19; assay: In-Vitro Testing SRB panel: CNS Cancer; assay type: cell-based; details: SNB-19
[6] = test system: UACC-62; assay: In-Vitro Testing SRB panel: Melanoma; assay type: cell-based; details: UACC-62
[7] = test system: 786-0; assay: In-Vitro Testing SRB panel: Renal Cancer; assay type: cell-based; details: 786-0
[8] = test system: TK-10; assay: In-Vitro Testing SRB panel: Renal Cancer; assay type: cell-based; details: TK-10
[9] = test system: MC-F7; assay: In-Vitro Testing SRB panel: Breast Cancer; assay type: cell-based
[10] = Homo sapiens, read-out: LC50 (the source's name)

COc1cccc2c1C(c1ccccc1Cl)c1cc(Cl)ccc1N(C(=O)c1ccc([N+](=O)[O-])cc1)C2 (stereo not shown) [Compound 31]
pIC50 [1]: 6.40
pIC50 [2]: 6.70
Body Weight Change [3]: 113%
Liver Weight [3]: 1.49 ± 0.04^c g
RBC [3]: 8.6 ± 1.6 10^6/mm^3
WBC [3]: 7.2 ± 1.7 10^3/mm^3
WBC, RBC, BUN and creatine levels [3]: no differences were found
TGI [4]: >1.00E−04 Molar
Percent Growth ([4]; log10 conc -4 Molar): 15%
Percent Growth ([4]; log10 conc -5 Molar): 20%
Percent Growth ([4]; log10 conc -6 Molar): 34%
Percent Growth ([4]; log10 conc -7 Molar): 79%
Percent Growth ([4]; log10 conc -8 Molar): 96%
GI50 ([4]; Homo sapiens): 0.444 µM
CC50 [4, 10]: > 100 µM
GI50 ([5]; Homo sapiens): 2.61 µM
CC50 [5, 10]: > 100 µM
TGI [5]: 5.66E−05 Molar
Percent Growth ([5]; log10 conc -4 Molar): −5%
Percent Growth ([5]; log10 conc -5 Molar): 16%
Percent Growth ([5]; log10 conc -6 Molar): 74%
Percent Growth ([5]; log10 conc -7 Molar): 99%
Percent Growth ([5]; log10 conc -8 Molar): 102%
GI50 ([6]; Homo sapiens): 0.43 µM
CC50 [6, 10]: > 100 µM
TGI [6]: >1.00E−04 Molar
Percent Growth ([6]; log10 conc -4 Molar): 14%
Percent Growth ([6]; log10 conc -5 Molar): 32%
Percent Growth ([6]; log10 conc -6 Molar): 36%
Percent Growth ([6]; log10 conc -7 Molar): 74%
Percent Growth ([6]; log10 conc -8 Molar): 90%
TGI [7]: >1.00E−04 Molar
Percent Growth ([7]; log10 conc -4 Molar): 14%
Percent Growth ([7]; log10 conc -5 Molar): 26%
Percent Growth ([7]; log10 conc -6 Molar): 54%
Percent Growth ([7]; log10 conc -7 Molar): 91%
Percent Growth ([7]; log10 conc -8 Molar): 95%
GI50 ([7]; Homo sapiens): 1.35 µM
CC50 [7, 10]: > 100 µM
GI50 ([8]; Homo sapiens): 16.9 µM
CC50 [8, 10]: > 100 µM
TGI [8]: >1.00E−04 Molar
Percent Growth ([8]; log10 conc -4 Molar): 34%
Percent Growth ([8]; log10 conc -5 Molar): 55%
Percent Growth ([8]; log10 conc -6 Molar): 85%
Percent Growth ([8]; log10 conc -7 Molar): 105%
Percent Growth ([8]; log10 conc -8 Molar): 102%
GI50 ([9]; Homo sapiens, MCF7): 0.821 µM
CC50 ([9]; Homo sapiens, MCF7, MC-F7, read-out: LC50 (the source's name)): > 100 µM
TGI ([9]; MC-F7): >1.00E−04 Molar
Percent Growth ([9]; MC-F7, log10 conc -4 Molar): 5%
Percent Growth ([9]; MC-F7, log10 conc -5 Molar): 19%
Percent Growth ([9]; MC-F7, log10 conc -6 Molar): 46%
Percent Growth ([9]; MC-F7, log10 conc -7 Molar): 93%
Percent Growth ([9]; MC-F7, log10 conc -8 Molar): 97%
